Our source for the IC50 values is US7842701B2, “Pyrazoloquinolone derivative and use thereof” (Takeda Pharmaceutical Company Limited, priority 2004, dated 2010).

pIC50: −log10 of the molar value.

The target in this experiment is T1, Src tyrosine kinase (p60^c-src) (Homo sapiens, UniProt P12931).
T1 construct: purchased Upstate Biotechnology, Inc
T1 sequence (P12931 whole entry): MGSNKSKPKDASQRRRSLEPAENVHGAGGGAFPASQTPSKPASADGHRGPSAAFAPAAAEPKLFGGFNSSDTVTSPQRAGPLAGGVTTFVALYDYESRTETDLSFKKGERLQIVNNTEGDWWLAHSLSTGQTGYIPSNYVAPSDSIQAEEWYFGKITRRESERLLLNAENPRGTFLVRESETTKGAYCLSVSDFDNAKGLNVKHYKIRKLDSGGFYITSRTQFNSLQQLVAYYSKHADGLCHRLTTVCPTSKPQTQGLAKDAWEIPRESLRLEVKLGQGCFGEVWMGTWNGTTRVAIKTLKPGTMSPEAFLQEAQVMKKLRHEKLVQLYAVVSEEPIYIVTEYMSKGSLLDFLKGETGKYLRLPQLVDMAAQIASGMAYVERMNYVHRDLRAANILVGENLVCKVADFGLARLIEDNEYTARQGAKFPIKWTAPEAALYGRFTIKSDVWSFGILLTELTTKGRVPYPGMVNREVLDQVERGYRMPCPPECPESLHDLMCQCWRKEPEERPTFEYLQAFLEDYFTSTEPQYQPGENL
As to the kind of experiment: Src tyrosine kinase inhibition (α-screen phosphotyrosine assay). The class given is biochemical. Particulars: 30 ng/ml p60^c-src, 100 ng/ml biotin-labeled poly(Glu:Tyr=4:1), 2 μM ATP, room temperature 10 minutes; value given only as order of magnitude; read-out: IC50 (concentration required for 50% inhibition of the enzyme activity). The protocol: Inhibition activity of the test compound for Src tyrosine kinase was measured by the method described as below. p60^c-src (a preparation purified partically, purchased from Upstate Biotechnology, Inc.) was usded as an enzyme. A biotin-labeled polypeptide (co-polymer of glutamic acid and tyrosine, glutamic acid:tyrosine=4:1, purchased from Nihon Schering K. K. (Japan), prepared by CIS Bio International) was used as a substrate. A solution having composition of 50 mM Tris-HCl (pH 7.5), 5 mM of MgCl2, 5 mM of MnCl2, 2 mM of dithiothreitol, 0.01% of Tween-20 was used as a buffer solution for measuring the activity of tyrosine-kinase. The amount of phosphorylation of tyrosine in the substrate after the reaction was measured by the method using phosphotyrosine recognition antibody. In the concrete, α-screen phosphotyrosine (p-tyr-100) assay kit (manufactured by PerkinElmer, Inc.) was used. Fusion™ (manufactured by PerkinElmer, Inc.) was used as a plate reader. The test compound was dissolved in dimethylsulfoxide, and diluted with the above-mentioned buffer solution for measuring the activity of tyrosine-kinase. To 5 μl of the solution of test compound was added 10 μl of a buffer solution containing 75 ng/ml of the enzyme (p60 ^c-src) and 250 ng/ml of the substrate (biotin-labeled polypeptide), and then added 10 μl of a buffer solution containing 5 μM ATP, and then the tyrosine-kinase reaction was initiated. Accordingly the tyrosine-kinase reaction was meant by a kinase reaction in a solution containing the test compound having designated concentration, 30 ng/ml of p60^c-src, 100 ng/ml of polypeptide, 2 μM of ATP, 50 mM of Tris-HCl (pH 7.5), 5 mM of MgCl2, 5 mM of MnCl2, 2 mM of dithiothreitol and 0.01% of Tween-20, and the amount of the reaction liquid was 25 μl. After the reaction was continued at room temperature for 10 minutes, the kinase reaction was terminated by adding 25 μl of a solution containing 100 mM of EDTA-2 sodium salt (Ethylene Diamine Tetraacetic Acid, disodium salt), 62.5 mM of HEPES (pH 7.4), 250 mM of NaCl, 0.1% of Bovine Serum Albumin, 10 μg/ml of streptavidine donor beads for α-screen assay, 10 μg/ml of acceptor beads binding anti-phosphotyrosin recognition antibody PY-100 for α-screen assay (Anti-phosphotyrisine(P-Tyr-100) Acceptor beads), and then the binding reaction between phosphotyrosine recognition antibody and phosphorylating tyrosine was continued at room temperature for 16 hours, and then the amount of tyrosine phosphorylation was measured by using plate reader Fusion™.
Inhibition rate (%)=100-[(count of the test compound-blank)/(control-blank)]×100 […]
Take `Cc1ccc(O)cc1-n1nc2c(c1N)c(=O)[nH]c1ccccc12` [Example 37, 3-amino-2-(5-hydroxy-2-methylphenyl)-2,5-dihydro-4H-pyrazolo[4,3-c]quinolin-4-one]: the pIC50 is roughly 9.00.
Take `Nc1c2c(=O)[nH]c3ccccc3c2nn1-c1cc(O)ccc1Cl` [Example 38, 3-amino-2-(2-chloro-5-hydroxyphenyl)-2,5-dihydro-4H-pyrazolo[4,3-c]quinolin-4-one]: the pIC50 was roughly 9.00.
The figure for `Nc1c2c(=O)[nH]c3cc(NCCCN4CCC(O)CC4)ccc3c2nn1-c1cccc(O)c1` [Example 61, 3-amino-2-(3-hydroxyphenyl)-7-{[3-(4-hydroxy-1-piperidinyl)propyl]amino}-2,5-dihydro-4H-pyrazolo[4,3-c]quinolin-4-one] is roughly 9.00; for `Nc1c2c(=O)[nH]c3cc(NCCCN4CCOCC4)ccc3c2nn1-c1cccc(O)c1` [Example 62, 3-amino-2-(3-hydroxyphenyl)-7-{[3-(4-morpholinyl)propyl]amino}-2,5-dihydro-4H-pyrazolo[4,3-c]quinolin-4-one] it is roughly 9.00.
